According to the NIST ThermoML archive (doi:10.1016/j.jct.2009.05.006):

How the values were obtained:
[1] = xn = mol fraction of the nth substance listed; conditions: 298.15 K, 101 kPa, Liquid, Vibrating tube method
[2] = excess molar enthalpy (molar enthalpy of mixing); xn = mol fraction of the nth substance listed; conditions: 298.15 K, 101 kPa, Liquid, Calvet calorimetry

BrCCCCCCBr [1,6-dibromohexane] + CCCCOC(C)=O
Conditions | excess molar enthalpy [kcal/mol] | mass density [kg/m3]
[1], x2 = 0.1369 | – | 1513.56
[1], x2 = 0.2111 | – | 1464.63
[1], x2 = 0.2634 | – | 1429.52
[1], x2 = 0.3292 | – | 1384.72
[1], x2 = 0.3855 | – | 1345.64
[1], x2 = 0.4456 | – | 1303.3
[1], x2 = 0.5046 | – | 1260.95
[1], x2 = 0.5622 | – | 1219.05
[1], x2 = 0.6175 | – | 1178.12
[1], x2 = 0.7334 | – | 1090.14
[1], x2 = 0.7855 | – | 1049.66
[1], x2 = 0.8433 | – | 1003.91
[1], x2 = 0.8909 | – | 965.75
[1], x2 = 0.9462 | – | 920.67
[2], x2 = 0.0742 | 0.00813 | –
[2], x2 = 0.1664 | 0.0139 | –
[2], x2 = 0.27 | 0.0179 | –
[2], x2 = 0.3625 | 0.0179 | –
[2], x2 = 0.4313 | 0.0151 | –
[2], x2 = 0.4863 | 0.012 | –
[2], x2 = 0.5098 | 0.00956 | –
[2], x2 = 0.5385 | 0.00741 | –
[2], x2 = 0.5631 | 0.00406 | –
[2], x2 = 0.5869 | 0.00167 | –
[2], x2 = 0.6272 | -0.00239 | –
[2], x2 = 0.6989 | -0.00526 | –
[2], x2 = 0.7827 | -0.00621 | –
[2], x2 = 0.8669 | -0.00478 | –
[2], x2 = 0.9422 | -0.00239 | –

BrCCCCCCBr [1,6-dibromohexane] + CCCCOC=O
Conditions | excess molar enthalpy [kcal/mol] | mass density [kg/m3]
[1], x2 = 0.0793 | – | 1558.23
[1], x2 = 0.1555 | – | 1514.85
[1], x2 = 0.2238 | – | 1474.51
[1], x2 = 0.2952 | – | 1430.8
[1], x2 = 0.3567 | – | 1391.77
[1], x2 = 0.4201 | – | 1350.14
[1], x2 = 0.4813 | – | 1308.59
[1], x2 = 0.5983 | – | 1224.92
[1], x2 = 0.6603 | – | 1178.22
[1], x2 = 0.7628 | – | 1097.17
[1], x2 = 0.8097 | – | 1058.36
[1], x2 = 0.854 | – | 1020.74
[1], x2 = 0.9078 | – | 973.55
[2], x2 = 0.0858 | 0.0241 | –
[2], x2 = 0.1844 | 0.0413 | –
[2], x2 = 0.2879 | 0.0566 | –
[2], x2 = 0.3755 | 0.0655 | –
[2], x2 = 0.4521 | 0.0686 | –
[2], x2 = 0.5188 | 0.0674 | –
[2], x2 = 0.6009 | 0.0636 | –
[2], x2 = 0.6581 | 0.0583 | –
[2], x2 = 0.7307 | 0.0497 | –
[2], x2 = 0.8078 | 0.0375 | –
[2], x2 = 0.8827 | 0.0246 | –
[2], x2 = 0.9487 | 0.0134 | –

CCCCOC(=O)CCC [butyl butanoate] + BrCCBr
[2]
Conditions | excess molar enthalpy [kcal/mol]
x1 = 0.0408 | 0.00621
x1 = 0.0978 | 0.0115
x1 = 0.1663 | 0.0139
x1 = 0.2361 | 0.0122
x1 = 0.2997 | 0.00765
x1 = 0.3488 | 0.00359
x1 = 0.4085 | -0.000478
x1 = 0.4847 | -0.00645
x1 = 0.5816 | -0.0115
x1 = 0.7159 | -0.0129
x1 = 0.8632 | -0.00884
x1 = 0.9347 | -0.00526

CCCCOC(=O)CCC [butyl butanoate] + BrCCCBr
Conditions | excess molar enthalpy [kcal/mol] | mass density [kg/m3]
[1], x1 = 0.079 | – | 1834.63
[1], x1 = 0.1205 | – | 1768.32
[1], x1 = 0.206 | – | 1641.3
[1], x1 = 0.2513 | – | 1578.66
[1], x1 = 0.3045 | – | 1509.31
[1], x1 = 0.356 | – | 1445.76
[1], x1 = 0.4085 | – | 1384.26
[1], x1 = 0.4703 | – | 1315.94
[1], x1 = 0.5404 | – | 1243.38
[1], x1 = 0.5989 | – | 1186.32
[1], x1 = 0.7409 | – | 1059.86
[1], x1 = 0.8162 | – | 998.93
[1], x1 = 0.8997 | – | 935.58
[1], x1 = 0.9428 | – | 904.65
[2], x1 = 0.0478 | 0.0055 | –
[2], x1 = 0.1102 | 0.00932 | –
[2], x1 = 0.1831 | 0.0105 | –
[2], x1 = 0.2568 | 0.00765 | –
[2], x1 = 0.3257 | 0.000956 | –
[2], x1 = 0.3879 | -0.00789 | –
[2], x1 = 0.4528 | -0.0163 | –
[2], x1 = 0.5333 | -0.0217 | –
[2], x1 = 0.6324 | -0.0246 | –
[2], x1 = 0.7588 | -0.0225 | –
[2], x1 = 0.8755 | -0.0158 | –
